The results in this text go back to article PMC6310865 (Proceedings of the National Academy of Sciences of the …, 2018).

Read-outs that look alike come from different tables or passages of the source. Ends that are not written are not given here.

One assay concerns CD4+ T cells. Format: cell-based, human.
The target of assay [1] is DQ0602 (HLA DQB1*06:02/DQA1*01:02 heterodimer) (Homo sapiens, UniProt P01909+P01920, A157G/A45G/C70R/E118A/E183D/E77G/F83G/G63E/H151Q/H199R/H252R/H253Q/I129T/I235V/I88M/INS77G/K197Q/L117V/L119F/L178F/L71W/L74F/L85Q/L91A/L98M/N214S/P87R/Q116E/Q76K/R102G/R240Q/R75S/R78G/S102Y/S185I/S41F/S97I/T121G/T122I/T172A/T86R/V229M/V68A/V73E/Y34C/Y41F/Y58L). Format: binding. The note with it: in words; Dataset S1.

[2] abbreviates: 13 post-Pandemrix cases versus 10 post-Pandemrix controls.

Consider “NP17–31: nucleoprotein epitope, PR8 specific (GERQNATEIRASVGK)”, for which, in the assay on CD4+ T cells, the “Tetramer reactivity (frequency of specific CD4+ T cells) in primary screening” value is given as “highest frequencies”.

As for “NP261–275: nucleoprotein epitope shared between A/California/07/2009 and PR8 (RSALILRGSVAHKSC; UniProt P03466 261-275, looked up, fragment)”, the “Tetramer reactivity (frequency of specific CD4+ T cells) in primary screening” value in the assay on CD4+ T cells was “highest frequencies”.

As to “HCRT86–97-NH2: C-terminal amidated HCRT86–97, as in secreted, mature hypocretin-2 (ASGNHAAGILTM-NH2; UniProt O43612 86-97, looked up, fragment)”, in assay [1], the “DQ0602 binding affinity of amidated versus nonamidated HCRT peptide” value is given as “higher affinity”. Further, the “Tetramer-positive CD4+ T cells in T1N cases versus DQ0602 controls” value in the assay on CD4+ T cells (setting [2]) was “significantly higher reactivity”; in the assay with CD4+ T cells (all cases versus controls, […]) it was “marginally higher values”.

In the case of “HCRT54–66-NH2: C-terminal amidated HCRT54–66, as in secreted, mature hypocretin-1 (HGAGNHAAGILTL-NH2)”, the “DQ0602 binding affinity of amidated versus nonamidated HCRT peptide” value in assay [1] was “higher affinity”. Besides, the “Tetramer-positive CD4+ T cells in T1N cases versus DQ0602 controls” value with CD4+ T cells (7 recent onset cases versus 21 controls) is on record as “higher reactivity”; in the assay on CD4+ T cells (setting [2]) it was “marginally higher values”; in the assay with CD4+ T cells (all cases versus controls, […]), “significantly higher percentage”.
